Legend:
Wnt pathway = test: Cellular assay for Wnt pathway activity (luciferase reporter cell based assay); conditions: 24 h, HEK293 luciferase reporter cell line (ER-DSH, TCF dependent promoter), induced with estrogen (1 μM), read-out: 7df3 IC50
[1] = CLint (intrinsic clearance) assay, microsomal incubation; type: in vitro ADME, Human; conditions: human, liver microsomes, pH 7.4, human liver microsomes 0.5 mg/mL protein, NADPH, 37° C., up to 30 min
Method: 2. CLint (Intrinsic Clearance) Assay
A Tecan Genesis workstation (RWS ASY 150/8) was used to perform the microsomal incubations. Analysis was carried out using a Waters ACQUITY UPLC system coupled to an ABSciex API3000 mass spectrometer. Data analysis was performed using Assay Explorer (Symyx).
0.1 M potassium phosphate buffer pH 7.4 containing 1 mM MgCl2
15 mM NADPH in phosphate buffer
5.0 mg protein/mL liver microsomes in phosphate buffer
Each experiment consists of 12 test and 2 reference compounds. The reference compounds are incubated as a cocktail.
Dilution of test compounds was done in 2 steps from a 10 mM DMSO stock solution. First 4 μL stock solution was added to 196 μL of 20% DMSO in potassium phosphate buffer pH 7.4. In a second step 10 μL of the first dilution were added to […] potassium phosphate buffer and 100 μL internal standard solution to a final concentration of 0.8 μM. 100 μL of the final compound dilution were aliquoted into a 96 deep well plate. 12.5 μL liver microsomes were added to each well (0.5 mg/mL final protein concentration) and the samples preincubated for 5 min at 37° C. and 800 rpm agitation.
After the preincubation, 250 μL cold acetonitrile were added to the 0 min samples to prevent a reaction. Following this, 12.5 μL NADPH solution were added to all wells to start the incubation, with the exception of the 0 min and 30 min controls without cofactor, where the NADPH was substituted for phosphate buffer.
The incubations were stopped after 5, 10, 20 and 30 min by adding 250 μL cold acetonitrile to the individual wells.
The quenched samples were then centrifuged at 4000 g for 1 h at 4° C. 100 μL of the supernatant were transferred into 96 well plates for analysis.
The metabolic stability of each compound was determined by measurement of the change in LC-MS/MS peak area over time. Assay Explorer software was used to automatically calculate the slope k of the decline. The intrinsic clearance (CLint) of each compound was then calculated according to the formula: CLint(μL/min/mg protein)=k1000/protein concentration.
CLint is shown for each compound in Table 3 below.

Compound	IC50 (Wnt pathway) [nM]	microsomal CLint at 0.8 μM [1] [µL/min/mg]
CN1C(=O)Cc2cc(-c3cncc(Cl)c3N3CCC4(CC3)CNC(=O)O4)ccc21 [Example 11, 8-[3-Chloro-5-(1-methyl-2-oxo-2,3-dihydro-1H-indol-5-yl)-pyridin-4-yl]-1-oxa-3,8-diaza-spiro[4.5]decan-2-one]	33	< 10
CCC1=NNC(=O)C12CCN(c1c(Cl)cncc1-c1ccc3c(c1)CS(=O)(=O)N3C)CC2 [Example 52, 8-[3-Chloro-5-(1-methyl-2,2-dioxo-2,3-dihydro-1H-2l6-benzo[c]isothiazol-5-yl)-pyridin-4-yl]-4-ethyl-2,3,8-triaza-spiro[4.5]dec-3-en-1-one]	0.02	70
O=C1NCCNC12CCN(c1c(Cl)cncc1-c1ccc3oc(=O)[nH]c3c1)CC2 [Example 72, 9-[3-Chloro-5-(2-oxo-2,3-dihydro-benzooxazol-5-yl)-pyridin-4-yl]-1,4,9-triaza-spiro[5.5]undecan-5-one]	35	< 10
CNC(=O)c1ccc(-c2cncc(Cl)c2N2CCC3(CCNC3=O)CC2)cc1 [Example 22, 4-[5-Chloro-4-(1-oxo-2,8-diaza-spiro[4.5]dec-8-yl)-pyridin-3-yl]-N-methyl-benzamide]	46	27
CN1c2ccc(-c3cncc(Cl)c3N3CCC4(CC3)CC(=O)NC4=O)cc2CS1(=O)=O [Example 87, 8-[3-Chloro-5-(1-methyl-2,2-dioxo-2,3-dihydro-1H-2l6-benzo[c]isothiazol-5-yl)-pyridin-4-yl]-2,8-diaza-spiro[4.5]decane-1,3-dione]	0.16	13
COCC1(C(N)=O)CCN(c2c(Cl)cncc2-c2ccc3c(c2)CS(=O)(=O)N3C)CC1 [Example 77, 5′-Chloro-4-methoxymethyl-3′-(1-methyl-2,2-dioxo-2,3-dihydro-1H-2l6-benzo[c]isothiazol-5-yl)-3,4,5,6-tetrahydro-2H-[1,4′]bipyridinyl-4-carboxylic acid amide]	0.43	75
O=C1Cc2ccc(-c3cncc(Cl)c3N3CCC4(CCNC4=O)CC3)cc2N1 [Example 64, 8-[3-Chloro-5-(2-oxo-2,3-dihydro-1H-indol-6-yl)-pyridin-4-yl]-2,8-diaza-spiro[4.5]decan-1-one]	19	49
Cn1ncc2cc(-c3cncc(Cl)c3N3CCC(N)(C(N)=O)CC3)ccc21 [Example 83, 4-Amino-5′-chloro-3′-(1-methyl-1H-indazol-5-yl)-3,4,5,6-tetrahydro-2H-[1,4′]bipyridinyl-4-carboxylic acid amide]	7.1	37
Cn1cc(-c2ccc(-c3cncc(Cl)c3N3CCC4(CC3)C(=O)NN=C4C(F)(F)F)cc2)cn1 [Example 59, 8-{3-Chloro-5-[4-(1-methyl-1H-pyrazol-4-yl)-phenyl]-pyridin-4-yl}-4-trifluoromethyl-2,3,8-triaza-spiro[4.5]dec-3-en-1-one]	17	43
O=C1NCC2(CCN(c3c(Cl)cncc3-c3ccc4c(c3)CS(=O)(=O)C4)CC2)O1 [Example 48, 8-[3-Chloro-5-(2,2-dioxo-2,3-dihydro-1H-2l6-benzo[c]thiophen-5-yl)-pyridin-4-yl]-1-oxa-3,8-diaza-spiro[4.5]decan-2-one]	42	23
O=C1CCc2cc(-c3cncc(Cl)c3N3CCC4(CCNC4=O)CC3)cnc2N1 [Example 93, 6-[5-Chloro-4-(1-oxo-2,8-diaza-spiro[4.5]dec-8-yl)-pyridin-3-yl]-3,4-dihydro-1H-[1,8]naphthyridin-2-one]	34	48
CC(C)(O)Cn1cc(-c2ccc(-c3cncc(Cl)c3N3CCC4(CC3)CNC(=O)O4)cc2)cn1 [Example 43, 8-(3-Chloro-5-{4-[1-(2-hydroxy-2-methyl-propyl)-1H-pyrazol-4-yl]-phenyl}-pyridin-4-yl)-1-oxa-3,8-diaza-spiro[4.5]decan-2-one]	50	11
CC(C)n1cc(-c2ccc(-c3cncc(Cl)c3N3CCC4(CCNC4=O)CC3)cc2)cn1 [Example 6, 8-{3-Chloro-5-[4-(1-isopropyl-1H-pyrazol-4-yl)-phenyl]-pyridin-4-yl}-2,8-diaza-spiro[4.5]decan-1-one]	6.2	90
Cn1ncc2cc(-c3cncc(Cl)c3N3CCC4(CC3)CC(=O)NC4=O)ccc21 [Example 1, 8-[3-Chloro-5-(1-methyl-1H-indazol-5-yl)-pyridin-4-yl]-2,8-diaza-spiro[4.5]decane-1,3-dione]	3.4	11

Results, then the compound that gave them:

IC50 (Wnt pathway) [nM]	microsomal CLint at 0.8 μM [1] [µL/min/mg]	Compound
20	20	CN1C(=O)Cc2ccc(-c3cncc(Cl)c3N3CCC4(CC3)NCNC4=O)cc21 [Example 74, 8-[3-Chloro-5-(1-methyl-2-oxo-2,3-dihydro-1H-indol-6-yl)-pyridin-4-yl]-1,3,8-triaza-spiro[4.5]decan-4-one]
15	< 10	Cn1ncc2ccc(-c3cncc(Cl)c3N3CCC4(CC3)CC(=O)NC4=O)cc21 [Example 66, 8-[3-Chloro-5-(1-methyl-1H-indazol-6-yl)-pyridin-4-yl]-2,8-diaza-spiro[4.5]decane-1,3-dione]
17	< 10	O=C1NCC2(CCN(c3c(Cl)cncc3-c3ccc(-c4cnn(CCO)c4)cc3)CC2)O1 [Example 15, 8-(3-Chloro-5-{4-[1-(2-hydroxy-ethyl)-1H-pyrazol-4-yl]-phenyl}-pyridin-4-yl)-1-oxa-3,8-diaza-spiro[4.5]decan-2-one]
4.7	70	O=C1NCCC12CCN(c1c(Cl)cncc1-c1ccc3c(c1)CS(=O)(=O)C3)CC2 [Example 32, 8-[3-Chloro-5-(2,2-dioxo-2,3-dihydro-1H-2l6-benzo[c]thiophen-5-yl)-pyridin-4-yl]-2,8-diaza-spiro[4.5]decan-1-one]
14	33	Cn1cc2cc(-c3cncc(Cl)c3N3CCC4(CCNC4=O)CC3)ccc2n1 [Example 92, 8-[3-Chloro-5-(2-methyl-2H-indazol-5-yl)-pyridin-4-yl]-2,8-diaza-spiro[4.5]decan-1-one]
18	< 10	Nc1n[nH]c2cc(-c3cncc(Cl)c3N3CCC4(CC3)CC(=O)NC4=O)ccc12 [Example 14, 8-[3-(3-Amino-1H-indazol-6-yl)-5-chloro-pyridin-4-yl]-2,8-diaza-spiro[4.5]decane-1,3-dione]
2	58	Cn1nc(N)c2ccc(-c3cncc(Cl)c3N3CCC4(CC3)CNC(=O)O4)cc21 [Example 27, 8-[3-(3-Amino-1-methyl-1H-indazol-6-yl)-5-chloro-pyridin-4-yl]-1-oxa-3,8-diaza-spiro[4.5]decan-2-one]
2.8	51	CN1c2ccc(-c3cncc(Cl)c3N3CCC(F)(C(N)=O)CC3)cc2CS1(=O)=O [Example 31, 5′-Chloro-4-fluoro-3′-(1-methyl-2,2-dioxo-2,3-dihydro-1H-2l6-benzo[c]isothiazol-5-yl)-3,4,5,6-tetrahydro-2H-[1,4′]bipyridinyl-4-carboxylic acid amide]
15	42	CN1c2ccc(-c3cncc(Cl)c3N3CCC4(CC3)C[C@H](C(F)(F)F)NC4=O)cc2CS1(=O)=O [Example 53, (R)-8-[3-Chloro-5-(1-methyl-2,2-dioxo-2,3-dihydro-1H-2l6-benzo[c]isothiazol-5-yl)-pyridin-4-yl]-3-trifluoromethyl-2,8-diaza-spiro[4.5]decan-1-one]
21	< 10	CN1C(=O)Cc2cc(-c3cncc(Cl)c3N3CCC4(CC3)CC(=O)NC4=O)ccc21 [Example 65, 8-[3-Chloro-5-(1-methyl-2-oxo-2,3-dihydro-1H-indol-5-yl)-pyridin-4-yl]-2,8-diaza-spiro[4.5]decane-1,3-dione]
4.7	20	CN1c2ccc(-c3cncc(Cl)c3N3CCC4(CC3)NCNC4=O)cc2CS1(=O)=O [Example 75, 8-[3-Chloro-5-(1-methyl-2,2-dioxo-2,3-dihydro-1H-2l6-benzo[c]isothiazol-5-yl)-pyridin-4-yl]-1,3,8-triaza-spiro[4.5]decan-4-one]
31	< 10	CN1c2ccc(-c3cncc(Cl)c3N3CCC4(CC3)NC(=O)CNC4=O)cc2CS1(=O)=O [Example 21, 9-[3-Chloro-5-(1-methyl-2,2-dioxo-2,3-dihydro-1H-2l6-benzo[c]isothiazol-5-yl)-pyridin-4-yl]-1,4,9-triaza-spiro[5.5]undecane-2,5-dione]
